Measured values taken from patent US20180021361A1, “COMBINATION DRUG TREATMENT FOR HEPATITIS C INFECTION” (JANSSEN PHARMACEUTICALS, INC., priority 2016, published 2018).

Columns and labels:
[1] = PK of single agents versus fixed dose combinations, single dose in healthy volunteers; type: in vivo, human; settings: for t1/2term: mean ± SD
Method: SMV (100 mg), ODV (50 mg), and Compound (III) (800 mg) were administered as three different formulations or together as single doses in vivo to healthy volunteers. The arms of the study included: • Arm 1 (Reference Arm): Single oral doses of single agents, one SMV 100-mg capsule, one ODV 50-mg tablet as granule layered solid dispersion with copovidone and poloxamers, and two Compound (III) 400-mg tablets, administered together. • Arm 2: Single oral dose of fixed dose combination (FDC02): SMV 100 mg+ODV 50 mg as a spray dried solid dispersion with HPMC-AS L in a ratio ODV/HPMC-AS L 1/1 w/w+Compound (III) 800 mg • Arm 3: Single oral dose of fixed dose combination (FDC04): SMV 100 mg+ODV 50 mg as a spray dried solid dispersion with HPMC-AS L in a ratio ODV/HPMC-AS L 1/3 w/w+Compound (III) 800 mg • Arm 4: Single oral dose of fixed dose combination (FDC01): SMV 100 mg+ODV 50 mg as a spray dried solid dispersion with copovidone and poloxamers+Compound (III) 800 mg
PK parameters, including Cmax, tmax, AUClast, and AUC∞ were measured for Compound (III), ODV, SMV, and metabolites Compound A-I and Compound A-3 for each Arm of the study. Arms that included fixed dose combinations (FDC) (Arm 2, Arm 3, and Arm 4) were then compared to a single oral dose (Arm 1, the reference Arm). Table 9, Table 10, Table 11, Table 12 and Table 13 display relevant PK parameters and FIG. 9, FIG. 10, FIG. 11, FIG. 12, and FIG. 13 depict the plasma concentration over time of SMV, ODV, Compound A-1, and Compound A-3 for each Arm of the study.

[2] = test system: CYP; assay: CYP inhibition
[3] = biological target: T1, BCRP (Homo sapiens, UniProt Q9UNQ0); settings: efflux transporter; cited from earlier work
T1 sequence (Q9UNQ0 1-655): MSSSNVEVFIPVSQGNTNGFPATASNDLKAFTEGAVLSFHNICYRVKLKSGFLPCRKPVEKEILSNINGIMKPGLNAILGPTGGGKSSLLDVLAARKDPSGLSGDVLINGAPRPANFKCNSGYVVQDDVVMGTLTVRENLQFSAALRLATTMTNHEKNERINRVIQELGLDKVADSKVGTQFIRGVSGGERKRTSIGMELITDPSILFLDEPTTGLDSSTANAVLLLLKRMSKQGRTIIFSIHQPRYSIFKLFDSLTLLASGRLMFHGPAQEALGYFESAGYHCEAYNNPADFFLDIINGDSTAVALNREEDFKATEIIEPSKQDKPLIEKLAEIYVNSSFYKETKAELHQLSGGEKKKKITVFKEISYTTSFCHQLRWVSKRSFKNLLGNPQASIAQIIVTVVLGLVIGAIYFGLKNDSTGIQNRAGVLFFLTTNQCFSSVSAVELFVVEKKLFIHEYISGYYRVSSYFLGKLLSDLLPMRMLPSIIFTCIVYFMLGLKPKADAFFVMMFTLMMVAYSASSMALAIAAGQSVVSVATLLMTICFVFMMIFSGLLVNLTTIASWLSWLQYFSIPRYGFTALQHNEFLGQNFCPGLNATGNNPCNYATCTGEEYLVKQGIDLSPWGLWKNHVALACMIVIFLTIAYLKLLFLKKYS

[4] = biological target: MRP2 (Homo sapiens, UniProt Q92887); settings: efflux transporter; cited from earlier work
Chain of MRP2 (Q92887 whole entry): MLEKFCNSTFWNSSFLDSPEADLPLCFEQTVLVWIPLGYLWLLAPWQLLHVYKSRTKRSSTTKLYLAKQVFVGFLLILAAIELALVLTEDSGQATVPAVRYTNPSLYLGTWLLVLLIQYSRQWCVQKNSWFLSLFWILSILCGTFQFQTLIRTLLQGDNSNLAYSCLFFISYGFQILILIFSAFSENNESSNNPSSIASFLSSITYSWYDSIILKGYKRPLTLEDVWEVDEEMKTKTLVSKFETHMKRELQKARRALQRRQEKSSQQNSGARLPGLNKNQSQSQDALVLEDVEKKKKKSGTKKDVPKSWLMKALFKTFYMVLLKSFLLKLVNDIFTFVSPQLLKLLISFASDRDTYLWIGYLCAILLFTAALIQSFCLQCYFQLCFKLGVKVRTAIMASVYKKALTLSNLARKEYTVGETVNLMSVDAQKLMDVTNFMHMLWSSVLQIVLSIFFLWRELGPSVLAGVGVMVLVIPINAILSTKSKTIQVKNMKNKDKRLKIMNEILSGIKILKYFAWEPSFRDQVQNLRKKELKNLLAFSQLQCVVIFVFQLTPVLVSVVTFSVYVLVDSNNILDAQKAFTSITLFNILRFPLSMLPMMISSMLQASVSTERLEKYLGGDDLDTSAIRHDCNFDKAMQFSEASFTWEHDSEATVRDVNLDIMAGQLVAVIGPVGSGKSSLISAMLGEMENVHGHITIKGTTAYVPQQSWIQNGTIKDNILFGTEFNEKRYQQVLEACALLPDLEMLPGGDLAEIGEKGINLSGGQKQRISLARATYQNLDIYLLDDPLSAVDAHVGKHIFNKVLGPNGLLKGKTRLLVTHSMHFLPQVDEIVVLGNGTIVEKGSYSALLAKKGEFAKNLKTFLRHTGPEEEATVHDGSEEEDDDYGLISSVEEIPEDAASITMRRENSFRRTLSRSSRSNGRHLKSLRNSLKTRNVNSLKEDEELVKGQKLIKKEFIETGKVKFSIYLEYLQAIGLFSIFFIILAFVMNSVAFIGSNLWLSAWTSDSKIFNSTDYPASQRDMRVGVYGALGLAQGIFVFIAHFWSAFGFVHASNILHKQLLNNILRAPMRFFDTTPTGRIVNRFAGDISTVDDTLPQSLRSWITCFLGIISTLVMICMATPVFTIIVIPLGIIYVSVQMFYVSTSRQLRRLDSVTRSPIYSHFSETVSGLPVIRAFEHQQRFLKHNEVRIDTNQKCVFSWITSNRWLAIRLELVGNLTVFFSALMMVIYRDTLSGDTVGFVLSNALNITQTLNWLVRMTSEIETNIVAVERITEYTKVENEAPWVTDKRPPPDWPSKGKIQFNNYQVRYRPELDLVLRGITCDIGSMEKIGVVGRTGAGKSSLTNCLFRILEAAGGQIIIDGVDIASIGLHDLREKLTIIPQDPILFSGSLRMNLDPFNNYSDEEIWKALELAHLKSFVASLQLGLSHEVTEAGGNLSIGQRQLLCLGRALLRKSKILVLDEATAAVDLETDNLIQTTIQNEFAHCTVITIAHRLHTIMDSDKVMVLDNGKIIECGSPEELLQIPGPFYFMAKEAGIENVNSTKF

[5] = Phase 2a open-label combination study, pharmacokinetics; type: in vivo, human
Method: A randomized, Phase 2a, open-label study was carried out to evaluate the safety, pharmacokinetics and efficacy of the combination of Compound (III), Odalasvir and Simeprevir in Genotype 1 treatment-naïve subjects with chronic hepatitis C. Other treatment-naïve subjects included Genotype 2, 3, 4, 5 and 6. The aim of the study was to determine the efficacy, pharmacokinetics (PK), and safety of Compound (III)+Odalasvir±SMV in HCV-infected subjects. […] Efficacy, PK and safety evaluations were conducted during and through 24 weeks post dosing. Up to 15 cohorts were enrolled; data was generated from cohorts that have completed dosing.

[6] = biological target: MRP2/3 (Homo sapiens, UniProt O15438); settings: efflux transporter; cited from earlier work
Chain of MRP2/3 (O15438 whole entry): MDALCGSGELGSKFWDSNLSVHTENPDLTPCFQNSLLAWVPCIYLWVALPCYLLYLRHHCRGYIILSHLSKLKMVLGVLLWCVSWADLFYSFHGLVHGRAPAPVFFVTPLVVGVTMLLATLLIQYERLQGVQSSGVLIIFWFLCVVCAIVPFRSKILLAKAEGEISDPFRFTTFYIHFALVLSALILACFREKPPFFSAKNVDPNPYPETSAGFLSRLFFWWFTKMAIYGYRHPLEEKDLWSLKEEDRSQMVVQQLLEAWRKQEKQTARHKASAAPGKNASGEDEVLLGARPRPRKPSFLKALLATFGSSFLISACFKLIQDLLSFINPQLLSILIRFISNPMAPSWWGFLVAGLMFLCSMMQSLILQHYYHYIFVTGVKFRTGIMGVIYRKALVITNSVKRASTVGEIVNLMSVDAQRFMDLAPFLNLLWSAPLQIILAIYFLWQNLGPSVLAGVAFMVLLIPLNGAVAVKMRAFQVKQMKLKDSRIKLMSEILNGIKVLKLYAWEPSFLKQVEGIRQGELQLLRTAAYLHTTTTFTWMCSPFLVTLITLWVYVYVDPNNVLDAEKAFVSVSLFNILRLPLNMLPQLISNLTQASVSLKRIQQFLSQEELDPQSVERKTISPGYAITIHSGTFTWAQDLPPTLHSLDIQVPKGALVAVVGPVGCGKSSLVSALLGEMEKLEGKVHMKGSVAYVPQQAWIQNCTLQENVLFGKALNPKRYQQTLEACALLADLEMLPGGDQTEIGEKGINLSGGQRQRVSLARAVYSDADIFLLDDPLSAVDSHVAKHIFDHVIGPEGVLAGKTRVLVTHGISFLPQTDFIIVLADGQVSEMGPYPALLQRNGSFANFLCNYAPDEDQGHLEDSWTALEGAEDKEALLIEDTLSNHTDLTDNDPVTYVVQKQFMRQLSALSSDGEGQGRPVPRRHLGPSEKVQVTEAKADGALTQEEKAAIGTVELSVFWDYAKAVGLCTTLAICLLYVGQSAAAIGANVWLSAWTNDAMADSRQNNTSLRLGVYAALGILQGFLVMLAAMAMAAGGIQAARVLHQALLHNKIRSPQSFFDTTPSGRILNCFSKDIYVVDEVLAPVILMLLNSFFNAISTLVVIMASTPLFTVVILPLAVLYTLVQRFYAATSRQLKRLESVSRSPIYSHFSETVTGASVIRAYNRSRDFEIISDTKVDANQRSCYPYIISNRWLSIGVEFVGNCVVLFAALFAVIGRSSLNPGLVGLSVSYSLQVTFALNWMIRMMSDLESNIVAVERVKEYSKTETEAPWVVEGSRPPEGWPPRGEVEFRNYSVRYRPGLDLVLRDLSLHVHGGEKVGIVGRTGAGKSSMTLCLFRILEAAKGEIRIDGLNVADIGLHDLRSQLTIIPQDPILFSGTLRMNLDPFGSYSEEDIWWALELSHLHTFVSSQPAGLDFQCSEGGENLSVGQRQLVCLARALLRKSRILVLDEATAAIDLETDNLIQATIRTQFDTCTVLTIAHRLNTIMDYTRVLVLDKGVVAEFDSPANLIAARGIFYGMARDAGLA

[7] = biological target: BSEP (Homo sapiens, UniProt O95342); settings: efflux transporter; cited from earlier work
Chain of BSEP (O95342 whole entry): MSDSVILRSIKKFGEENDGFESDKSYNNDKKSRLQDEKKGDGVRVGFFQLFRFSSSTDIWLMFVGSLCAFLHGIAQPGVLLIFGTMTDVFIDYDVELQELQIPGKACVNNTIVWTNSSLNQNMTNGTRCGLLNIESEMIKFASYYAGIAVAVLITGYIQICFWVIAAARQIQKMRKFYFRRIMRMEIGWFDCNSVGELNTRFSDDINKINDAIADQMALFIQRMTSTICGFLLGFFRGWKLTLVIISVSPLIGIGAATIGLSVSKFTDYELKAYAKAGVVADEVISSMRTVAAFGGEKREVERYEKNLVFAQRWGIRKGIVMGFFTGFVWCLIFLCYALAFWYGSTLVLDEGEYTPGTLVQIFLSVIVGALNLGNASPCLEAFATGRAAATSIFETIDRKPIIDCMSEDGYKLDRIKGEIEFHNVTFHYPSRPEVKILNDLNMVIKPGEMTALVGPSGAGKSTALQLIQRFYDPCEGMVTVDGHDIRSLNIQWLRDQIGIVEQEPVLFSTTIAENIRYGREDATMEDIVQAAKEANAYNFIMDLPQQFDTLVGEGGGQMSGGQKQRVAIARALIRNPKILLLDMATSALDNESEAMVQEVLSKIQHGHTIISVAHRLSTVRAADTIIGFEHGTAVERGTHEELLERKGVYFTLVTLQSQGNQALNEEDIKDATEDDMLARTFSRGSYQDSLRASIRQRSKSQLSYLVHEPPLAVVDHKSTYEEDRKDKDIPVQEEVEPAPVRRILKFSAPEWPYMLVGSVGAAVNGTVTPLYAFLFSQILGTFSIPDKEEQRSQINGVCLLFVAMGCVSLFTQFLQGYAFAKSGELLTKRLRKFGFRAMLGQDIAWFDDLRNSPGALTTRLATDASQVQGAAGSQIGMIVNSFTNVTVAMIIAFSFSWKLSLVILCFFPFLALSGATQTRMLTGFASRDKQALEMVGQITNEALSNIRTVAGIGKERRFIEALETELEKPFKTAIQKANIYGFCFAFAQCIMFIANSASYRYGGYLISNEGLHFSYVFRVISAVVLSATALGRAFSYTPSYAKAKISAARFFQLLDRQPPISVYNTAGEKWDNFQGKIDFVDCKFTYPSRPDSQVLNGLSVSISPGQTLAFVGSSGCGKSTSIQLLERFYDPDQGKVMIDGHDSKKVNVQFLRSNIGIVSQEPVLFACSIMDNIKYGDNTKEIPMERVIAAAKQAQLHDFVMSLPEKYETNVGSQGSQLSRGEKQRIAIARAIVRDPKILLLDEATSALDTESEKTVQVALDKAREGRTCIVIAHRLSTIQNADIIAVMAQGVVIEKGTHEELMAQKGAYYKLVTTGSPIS

For CC(C)OC(=O)C(C)N[P@](=O)(OC[C@@]1(F)O[C@@H](n2ccc(=O)[nH]c2=O)[C@](C)(O)[C@@H]1O)Oc1ccccc1 (stereo in doubt) [Compound (III)], the t1/2term ([1]; Arm 1 (reference): single agents, single oral dose) was 36 ± 6 min, the t1/2term ([1]; Arm 2: FDC02, single oral dose) was 42 ± 12 min and the t1/2term ([1]; Arm 3: FDC04, single oral dose) was 42 ± 6 min. The t1/2term ([1]; Arm 4: FDC01, single oral dose) was 36 ± 6 min, the Tmax ([1]; human, in vivo, Arm 1 (reference): single agents, single oral dose, median [range]) was 120 min and the IC50 [2] was > 26 µM. For the same compound, the “in vitro inhibition of BCRP” value [3] was “no in vitro inhibition”.

In the case of COC(=O)N[C@H](C(=O)N1[C@H](c2nc3cc(-c4cc5ccc4CCc4ccc(c(-c6ccc7[nH]c([C@@H]8C[C@@H]9CCCC[C@@H]9N8C(=O)[C@@H](NC(=O)OC)C(C)C)nc7c6)c4)CC5)ccc3[nH]2)C[C@@H]2CCCC[C@@H]21)C(C)C [ODV, methyl [(2S)-1-[(2S,3aS,7aS)-2-[6-[11-[2-[(2S,3aS,7aS)-1-[(2S)-2-[(methoxycarbonyl)amino]-3-methylbutanoyl]octahydro-1H-indol-2-yl]-1H-benzimidazol-6-yl]tricyclo[8.2.2.2^4,7]hexadeca-1(12),4,6,10,13,15-hexaen-5-yl]-1H-benzimidazol-2-yl]octahydro-1H-indol-1-yl]-3-methyl-1-oxobutan-2-yl]carbamate], the “in vitro inhibition of MRP2” value [4] is listed as “no inhibition”, the “decrease of exposure on reducing Odalasvir dosing from once a day to every other day” value ([5]; 50 mg) is listed as “proportionally” and the “observed exposure in Cohort 1 / group (i) versus anticipated” value ([5]; Compound (III) 400 mg, ODV 50 mg QD, SMV 100 mg QD) is listed as “higher than anticipated”. For the same compound, the “in vitro inhibition of MRP3” value [6] was “no inhibition”, the “in vitro inhibition of BCRP” value [3] was “no inhibition” and the “in vitro inhibition of BSEP” value [7] was “no inhibition”.
